# Measurements reported in patent US4156724A, “N-acylamino-alpha-arylacetamido cephalosporins and antibacterial compositions and methods containing them” (Sumitomo Chemical Company, Limited, priority 1974, dated 1979).
# Columns and labels:
# Assay type in all cases: cell-based
# Proteus vulgaris HX 19 = assay: Minimum Inhibitory Concentration, Proteus vulgaris HX 19; settings: Proteus vulgaris HX 19; for MIC: HX19, read-out: Minimum Inhibitory Concentration
# Description: (§1) anti-microbial activity tests were carried out on the compounds obtained in the Examples.
# Escherichia coli NIHJ = assay: Minimum Inhibitory Concentration, Escherichia coli NIHJ; settings: Escherichia coli NIHJ; for MIC: read-out: Minimum Inhibitory Concentration
# Description: as §1
# Serratia No. 72 = assay: Minimum Inhibitory Concentration, Serratia No. 72
# Description: as §1
# [1] = tested on: Klebsiella pneumoniae 602; assay: Minimum Inhibitory Concentration, Klebsiella pneumoniae 602; settings: for MIC: Klebsiella pneumoniae, 602, Klebsiella pneumoniae 602, read-out: Minimum Inhibitory Concentration; for Minimum Inhibitory Concentration: Klebsiella pneumoniae 602
# Description: as §1
# [2] = tested on: Staphylococcus aureus 209 P; assay: Minimum Inhibitory Concentration, Staphylococcus aureus 209 P; settings: Staphylococcus aureus 209 P; for MIC: read-out: Minimum Inhibitory Concentration
# Description: as §1
# [3] = tested on: Pseudomonas aeruginosa 104; assay: Minimum Inhibitory Concentration, Pseudomonas aeruginosa 104; settings: Pseudomonas aeruginosa 104; for MIC: read-out: Minimum Inhibitory Concentration
# Description: as §1
# [4] = tested on: Staphylococcus aureus FS 289; assay: Minimum Inhibitory Concentration, Staphylococcus aureus FS 289; settings: Staphylococcus aureus FS 289, strain resistant to penicillin; for MIC: FS289, read-out: Minimum Inhibitory Concentration
# Description: as §1
# *Staphylococcus aureus FS 289: strain resistant to penicillin
# [5] = tested on: Enterobacter aerogeneus No. 75; assay: Minimum Inhibitory Concentration, Enterobacter aerogeneus No. 75; settings: Enterobacter aerogeneus No. 75; for MIC: read-out: Minimum Inhibitory Concentration
# Description: as §1
MIC (Proteus vulgaris HX 19) [µg/mL],MIC (Escherichia coli NIHJ) [µg/mL],MIC (Serratia No. 72) [µg/mL],MIC [1] [µg/mL],MIC [2] [µg/mL],MIC [3] [µg/mL],MIC [4] [µg/mL],MIC [5] [µg/mL],SMILES,Minimum Inhibitory Concentration (Proteus vulgaris HX 19) [µg/mL],Minimum Inhibitory Concentration (Escherichia coli NIHJ) [µg/mL],Minimum Inhibitory Concentration (Serratia No. 72) [µg/mL],Minimum Inhibitory Concentration [1] [µg/mL],Minimum Inhibitory Concentration [2] [µg/mL],Minimum Inhibitory Concentration [3] [µg/mL],Minimum Inhibitory Concentration [4] [µg/mL],Minimum Inhibitory Concentration [5] [µg/mL]
0.78,12.5,100,12.5,0.78,12.5,6.25,25,"CC(=O)OCC1=C(C(=O)O)N2C(=O)C(NC(=O)[C@H](NC(=O)c3nnc4ccccc4c3O)c3ccc(O)cc3)C2SC1 (stereo partly drawn) [Example 124, 7-[D-α-(4-hydroxycinnoline-3-carbonamido)-α-p-hydrxyphenylacetamido]cephalosporanic acid]",–,–,–,–,–,–,–,–
0.1,6.25,50,6.25,0.39,12.5,6.25,12.5,"Cc1nnc(SCC2=C(C(=O)O)N3C(=O)C(NC(=O)[C@H](NC(=O)c4cnccc4O)c4ccc(O)cc4)C3SC2)s1 (stereo partly drawn) [Example 125, 7-[D-α-(4-Hydroxypyridine-3-carbonamido)-α-p-hydroxyphenylacetamido]-3-(2-methyl-1,3,4-thiadiazol-5-yl)thiomethyl-3-cephem-4-carboxylic Acid]",–,–,–,–,–,–,–,–
0.2,6.25,100,12.5,0.39,6.25,6.25,12.5,"Cn1nnnc1SCC1=C(C(=O)O)N2C(=O)C(NC(=O)[C@H](NC(=O)c3cnccc3O)c3ccc(O)cc3)C2SC1 (stereo partly drawn) [Example 126, 7-[D-α-(4-Hydroxypyridine-3-carbonamido)-α-p-hydroxyphenylacetamido]-3-(1-methyltetrazol-5-yl)thiomethyl-3-cephem-4-carboxylic acid]",–,–,–,–,–,–,–,–
0.2,6.25,50,6.25,0.39,6.25,6.25,12.5,Cc1nnc(SCC2=C(C(=O)O)N3C(=O)C(NC(=O)[C@H](NC(=O)c4ccnnc4O)c4ccc(O)cc4)C3SC2)s1 (stereo partly shown) [Example 127],–,–,–,–,–,–,–,–
0.39,6.25,50,6.25,0.39,6.25,6.25,12.5,Cn1nnnc1SCC1=C(C(=O)O)N2C(=O)C(NC(=O)[C@H](NC(=O)c3ccnnc3O)c3ccc(O)cc3)C2SC1 (stereo partly shown) [Example 128],–,–,–,–,–,–,–,–
0.1,1.56,12.5,1.56,0.78,3.13,3.13,3.13,Cc1nnc(SCC2=C(C(=O)O)N3C(=O)C(NC(=O)[C@H](NC(=O)c4cnc5cccnc5c4O)c4ccc(O)cc4)C3SC2)s1 (stereo partly shown) [Example 129],–,–,–,–,–,–,–,–
0.1,1.56,12.5,1.56,0.78,3.13,3.13,3.13,O=C(O)C1=C(CSc2nncs2)CSC2C(NC(=O)[C@H](NC(=O)c3cnc4cccnc4c3O)c3ccc(O)cc3)C(=O)N12 (stereo partly shown) [Example 130],–,–,–,–,–,–,–,–
0.1,1.56,12.5,0.78,0.78,3.13,3.13,3.13,Cn1nnnc1SCC1=C(C(=O)O)N2C(=O)C(NC(=O)[C@H](NC(=O)c3cnc4cccnc4c3O)c3ccc(O)cc3)C2SC1 (stereo partly shown) [Example 131],–,–,–,–,–,–,–,–
0.1,3.13,25,1.56,0.78,6.25,3.13,3.13,Cn1nnnc1SCC1=C(C(=O)O)N2C(=O)C(NC(=O)[C@H](NC(=O)c3cnc4cccnc4c3O)c3ccc(O)c(Cl)c3)C2SC1 (stereo partly shown) [Example 132],–,–,–,–,–,–,–,–
0.1,3.13,25,1.56,0.78,3.13,3.13,3.13,Cn1nnc(SCC2=C(C(=O)O)N3C(=O)C(NC(=O)[C@H](NC(=O)c4cnc5cccnc5c4O)c4ccc(O)cc4)C3SC2)n1 (stereo partly shown) [Example 133],–,–,–,–,–,–,–,–
0.1,3.13,25,1.56,0.78,3.13,3.13,3.13,O=C(O)C1=C(CSc2cnn[nH]2)CSC2C(NC(=O)[C@H](NC(=O)c3cnc4cccnc4c3O)c3ccc(O)cc3)C(=O)N12 (stereo partly shown) [Example 134],–,–,–,–,–,–,–,–
–,–,–,–,–,–,–,–,CC(=O)OCC1=C(C(=O)[O-])N2C(=O)C(NC(=O)C(NC(=O)c3cnc4nc(C)cnc4c3O)c3ccc(O)cc3)C2SC1.[Na+] (stereo not shown) [Example 136],0.78,3.13,100,3.13,0.78,6.25,6.25,6.25
–,–,–,–,–,–,–,–,CSc1ncc2c(O)c(C(=O)NC(C(=O)NC3C(=O)N4C(C(=O)[O-])=C(COC(C)=O)CSC34)c3ccc(O)cc3)cnc2n1.[Na+] (stereo not shown) [Example 137],1.56,12.5,100,12.5,1.56,12.5,12.5,50
–,–,–,–,–,–,–,–,CC(=O)OCC1=C(C(=O)[O-])N2C(=O)C(NC(=O)C(NC(=O)c3cnc4cccnc4c3O)c3cccc(O)c3)C2SC1.[Na+] (stereo not shown) [Example 138],0.78,3.13,50,1.56,0.78,6.25,6.25,6.25
–,–,–,–,–,–,–,–,CC(=O)OCC1=C(C(=O)[O-])N2C(=O)C(NC(=O)C(NC(=O)c3cnc4ncncc4c3O)c3ccc(O)cc3)C2SC1.[Na+] (stereo not shown) [Example 139],3.13,12.5,50,6.25,1.56,12.5,12.5,50
–,–,–,–,–,–,–,–,CSc1cnc2c(O)c(C(=O)NC(C(=O)NC3C(=O)N4C(C(=O)[O-])=C(COC(C)=O)CSC34)c3cccc(O)c3)cnc2n1.[Na+] (stereo not shown) [Example 140],1.56,3.13,50,6.25,0.78,6.25,6.25,12.5
–,–,–,–,–,–,–,–,CC(=O)OCC1=C(C(=O)[O-])N2C(=O)C(NC(=O)C(NC(=O)c3cnc4cncnc4c3O)c3ccc(O)cc3)C2SC1.[Na+] (stereo not shown) [Example 141],0.78,6.25,50,6.25,0.78,6.25,6.25,12.5
–,–,–,–,–,–,–,–,CC(=O)OCC1=C(C(=O)[O-])N2C(=O)C(NC(=O)C(NC(=O)c3cnc4cccnc4c3O)c3ccc(O)c(O)c3)C2SC1.[Na+] (stereo not shown) [Example 142],0.78,3.13,50,3.13,1.56,6.25,6.25,6.25
–,–,–,–,–,–,–,–,COc1cc(C(NC(=O)c2cnc3cccnc3c2O)C(=O)NC2C(=O)N3C(C(=O)[O-])=C(COC(C)=O)CSC23)ccc1O.[Na+] (stereo not shown) [Example 143],0.78,6.25,100,3.13,3.13,6.25,12.5,12.5
–,–,–,–,–,–,–,–,CC(=O)OCC1=C(C(=O)[O-])N2C(=O)C(NC(=O)C(NC(=O)c3cnc4cccnc4c3O)c3cc(Cl)c(O)c(Cl)c3)C2SC1.[Na+] (stereo not shown) [Example 144],1.56,6.25,100,6.25,3.13,6.25,12.5,12.5
